Where only a bound is given, the exact number is not on record here.

This test concerns HSV-1. In words: HSV infection of Vero 76 cells, viral DNA detected by hybridization capture with chemiluminescence. It is filed as cell-based. The following applies: Human alphaherpesvirus 1; HSV-1 in Vero 76 cells, MOI=0.001, incubated 40–48 hours with test compound. The protocol: Vero 76 cells were maintained in MEM with Earle's salts, L-glutamine, 8% FBS (Hyclone, A-1111-L) and 100 units/mL Penicillin-100 μg/mL Streptomycin. For assay conditions, FBS was reduced to 2%. Cells are seeded into 96-well tissue culture plates at a density of 5×10^4 cells/well after being incubated for 45 min at 37° C. in the presence of HSV-1 or HSV-2 (MOI=0.001). Test compounds are added to the wells and the plates are incubated at 37° C. for 40–48 hours. Cell lysates are prepared as follows: media was removed and replaced with 150 μL/well 0.2 N NaOH with 1% Igepal CA 630 or NP-40. Plates were incubated up to 14 days at room temperature in a humidified chamber to prevent evaporation.
For the detection probe, a gel-purified, digoxigenin-labeled, 710-bp PCR fragment of the HSV UL-15 sequence was utilized. PCR conditions included 0.5 μM primers, 180 μM dTTP, 20 μM dUTP-digoxigenin (Boehringer Mannheim 1558706), 200 μM each of dATP, dCTP, and dGTP, 1×PCR Buffer II (Perkin Elmer), 2.5 mM MgCl2, 0.025 units/μL of AmpliTaq Gold polymerase (Perkin Elmer), and 5 ng of gel-purified HSV DNA per 100 μL Extension conditions were 10 min at 95° C., followed by 30 cycles of 95° C. for 1 min, 55° C. for 30 sec, and 72° C. for 2 min. The amplification was completed with a 10-min incubation at 72° C. Primers were selected to amplify a 728 bp probe spanning a section of the HSV1 UL15 open reading frame (nucleotides 249–977). Single-stranded transcripts were purified with Promega M13 Wizard kits. The final product was mixed 1:1 with a mixture of 6 M GuSCN, 100 mM EDTA and 200 μg/mL herring sperm DNA and stored at 4° C.
The capture DNA plasmid (HSV UL13 region in pUC) was linearized by cutting with XbaI, denatured for 15 min at 95° C. and diluted immediately into Reacti-Bind DNA Coating Solution (Pierce, 17250, diluted 1:1 with TE buffer, pH 8) at 1 ng/μL 75 μL/well were added to Corning (#3922 or 9690) white 96-well plates and incubated at room temperature for at least 4 hrs before washing twice with 300 μL/well 0.2×SSC/0.05% Tween-20 (SSC/T buffer). The plates were then incubated overnight at room temperature with 150 μL/well 0.2 N NaOH, 1% IGEPAL and 10 μg/mL herring sperm DNA.
Twenty-seven (27) μL of cell lysate was combined with 45 μL of hybridization solution (final concentration: 3M GuSCN, 50 mM EDTA, 100 μg/ml salmon sperm DNA, 5×Denhardt's solution, 0.25×APE, and 5 ng of the digoxigenin-labeled detection probe). APE is 1.5 M NH4-acetate, 0.15 M ammonium phosphate monobasic, and 5 mM EDTA adjusted to pH 6.0. Mineral oil (50 μL) was added to prevent evaporation. The hybridization plates were incubated at 95° C. for 10 minutes to denature the DNA, then incubated at 42° C. overnight. The wells were washed 6× with 300 μL/well SSC/T buffer then incubated with 75 μL/well anti-digoxigenin-HRP-conjugated antibody (Boehringer Mannheim 1207733, 1:5000 in TE) for 30 min at room temperature. The wells were washed 6× with 300 μL/well with PBS/0.05% Tween-20 before 75 μL/well SuperSignal LBA substrate (Pierce) was added. The plates were incubated at room temperature for 30 minutes and chemiluminescence was measured in a Wallac Victor reader.
`Clc1cccn2c(-c3ccnc(NC4CC4)n3)c(-c3ccc4ccccc4c3)nc12` [Example 23, 4-[8-Chloro-2-(2-naphthyl)imidazo[1,2-α]pyridin-3-yl]-N-cyclopropyl-2-pyrimidinamine]: half-maximal inhibition (IC50) was put at 210 nM.
On to `CCCCNc1cc(Br)cn2c(-c3ccnc(NC4CCCC4)n3)c(-c3ccc(F)cc3)nc12` [Example 42, 6-Bromo-N-butyl-3-[2-(cyclopentylamino)-4-pyrimidinyl]-2-(4-fluorophenyl)imidazo[1,2-a]pyridin-8-amine], for which the IC50 (in general, the concentration needed to halve the response being measured) stood at 290 nM.
For the compound `COc1ccc(-c2nc3c(Cl)cccn3c2-c2ccnc(NC3CCCC3)n2)cc1` [Example 9, 4-[8-Chloro-2-(4-methoxyphenyl)imidazo[1,2-α]pyridin-3-yl]-N-cyclopentyl-2-pyrimidinamine], the IC50 came to 1200 nM.
Turning to `Oc1cccc(-c2nc3c(NC4CCCC4)cccn3c2-c2ccnc(NC3CCCC3)n2)c1` [Example 17, 3-{8-(Cyclopentylamino)-3-[2-(cyclopentylamino)-4-pyrimidinyl]imidazo[1,2-α]pyridin-2-yl}phenol], inhibition was half-maximal at 3100 nM (IC50).
`Fc1ccc(-c2nc3ccc(Br)cn3c2-c2ccnc(NC3CCCC3)n2)cc1` [Example 47, N-{4-[6-Bromo-2-(4-fluorophenyl)imidazo[1,2-a]pyridin-3-yl]-2-pyrimidinyl}-N-cyclopentylamine]: half-maximal inhibition (IC50) was put at 4000 nM. This IC50 and that of the compound before are within 1.5-fold of each other.
As for `CNc1nccc(-c2c(-c3ccc(F)cc3)nc3c(NC4CCCC4)cccn23)n1` [Example 8, N-Cyclopentyl-2-(4-fluorophenyl)-3-[2-(methylamino)-4-pyrimidinyl]imidazo[1,2-α]pyridin-8-amine], the IC50 was over 5000 nM.
Turning to `COc1cccc(-c2nc3c(Cl)cccn3c2-c2ccnc(NC3CCCC3)n2)c1` [Example 15, 4-[8-Chloro-2-(3-methoxyphenyl)imidazo[1,2-α]pyridin-3-yl]-N-cyclopentyl-2-pyrimidinamine], the IC50 stood at 2300 nM.
`c1cc(NC2CCCC2)c2nc(-c3ccc(OCC4CC4)cc3)c(-c3ccnc(NC4CCCC4)n3)n2c1` [Example 53, N-Cyclopentyl-3-[2-(cyclopentylamino)-4-pyrimidinyl]-2-[4-(cyclopropylmethoxy)phenyl]imidazo[1,2-a]pyridin-8-amine] showed an IC50 of 200 nM. This IC50 lies about 12-fold lower than the previous one.
Next, `O=[N+]([O-])c1cccc(-c2nc3c(Cl)cccn3c2-c2ccnc(NC3CCCC3)n2)c1` [Example 30, N-{4-[8-Chloro-2-(3-nitrophenyl)imidazo[1,2-α]pyridin-3-yl]-2-pyrimidinyl}-N-cyclopentylamine]: 1600 nM; `Fc1ccc(-c2nc3c(Cl)cccn3c2-c2ccnc(NC3CCCC3)n2)cc1` [Example 2, 4-[8-Chloro-2-(4-fluorophenyl)imidazo[1,2-α]pyridin-3-yl]-N-cyclopentyl-2-pyrimidinamine]: 3900 nM; `COCCNc1cccn2c(-c3ccnc(NC4CCCC4)n3)c(-c3ccc(C)cc3)nc12` [Example 21, 3-[2-(Cyclopentylamino)-4-pyrimidinyl]-N-(2-methoxyethyl)-2-(4-methylphenyl)imidazo[1,2-α]pyridin-8-amine]: 640 nM.
`N#Cc1ccc(-c2nc3c(NC4CCCC4)cccn3c2-c2ccnc(NC3CCCC3)n2)cc1` [Example 26, 4-{8-(Cyclopentylamino)-3-[2-(cyclopentylamino)-4-pyrimidinyl]imidazo[1,2-α]pyridin-2-yl}benzonitrile] had an IC50 of 310 nM. This IC50 is about 2.1-fold lower than that of the compound before.
The compound `C=CCOc1cccc(-c2nc3c(NC4CCCC4)cccn3c2-c2ccnc(NC3CCCC3)n2)c1` [Example 18, 2-[3-(Allyloxy)phenyl]-N-cyclopentyl-3-[2-(cyclopentylamino)-4-pyrimidinyl]imidazo[1,2-α]pyridin-8-amine] registered an IC50 of 340 nM.
In turn, `Oc1cccn2c(-c3ccnc(NC4CCCC4)n3)c(-c3ccc(F)cc3)nc12` [Example 58] had an IC50 of 200 nM.
Next, `Fc1ccc(-c2nc3ccc(N4CCOCC4)cn3c2-c2ccnc(NC3CCCC3)n2)cc1` [Example 50, N-Cyclopentyl-4-[2-(4-fluorophenyl)-6-(4-morpholinyl)imidazo[1,2-a]pyridin-3-yl]-2-pyrimidinamine]: 180 nM; `CCCCNc1cccn2c(-c3ccnc(NC4CCCC4)n3)c(-c3ccc(F)cc3)nc12` [Example 5, N-Butyl-3-[2-(cyclopentylamino)-4-pyrimidinyl]-2-(4-fluorophenyl)imidazo[1,2-α]pyridin-8-amine]: 650 nM; `O=[N+]([O-])c1cccc(-c2nc3c(N4CCOCC4)cccn3c2-c2ccnc(NC3CCCC3)n2)c1` [Example 31, N-Cyclopentyl-4-[8-(4-morpholinyl)-2-(3-nitrophenyl)imidazo[1,2-α]pyridin-3-yl]-2-pyrimidinamine]: 1200 nM.
As to `Nc1cccn2c(-c3ccnc(NC4CCCC4)n3)c(-c3ccc(F)cc3)nc12` [Example 1, 3-[2-(Cyclopentylamino)-4-pyrimidinyl]-2-(4-fluorophenyl)imidazo[1,2-α]pyridin-8-amine], the IC50 turned out to be 600 nM. Compared with the last compound, the IC50 is about 2-fold lower.
Compound `COCCNc1cccn2c(-c3ccnc(NC4CCCC4)n3)c(-c3ccc(F)cc3)nc12` [Example 6, 3-[2-(Cyclopentylamino)-4-pyrimidinyl]-2-(4-fluorophenyl)-N-(2-methoxyethyl)imidazo[1,2-α]pyridin-8-amine] came in with an IC50 of 340 nM.
The compound `NC(=O)c1ccc(-c2nc3c(NC4CCCC4)cccn3c2-c2ccnc(NC3CCCC3)n2)cc1` [Example 29, 4-{8-(Cyclopentylamino)-3-[2-(cyclopentylamino)-4-pyrimidinyl]imidazo[1,2-α]pyridin-2-yl}benzamide] gave an IC50 of over 5000 nM.
Next, `Cc1cccn2c(-c3ccnc(NC4CCCC4)n3)c(-c3ccc(F)cc3)nc12` [Example 46, N-Cyclopentyl-4-[2-(4-fluorophenyl)-8-methylimidazo[1,2-a]pyridin-3-yl]-2-pyrimidinamine]: 1500 nM; `N#Cc1ccc(-c2nc3c(Cl)cccn3c2-c2ccnc(NC3CCCC3)n2)cc1` [Example 25, 4-{8-Chloro-3-[2-(cyclopentylamino)-4-pyrimidinyl]imidazo[1,2-α]pyridin-2-yl}benzonitrile]: 300 nM.
`Cc1ccc(-c2nc3c(N4CCOCC4)cccn3c2-c2ccnc(NC3CCCC3)n2)cc1` [Example 22, N-Cyclopentyl-4-[2-(4-methylphenyl)-8-(4-morpholinyl)imidazo[1,2-α]pyridin-3-yl]-2-pyrimidinamine] returned an IC50 of 840 nM.
With `Fc1ccc(-c2nc3c(Cl)cc(Cl)cn3c2-c2ccnc(NC3CCCC3)n2)cc1` [Example 38, N-Cyclopentyl-4-[6,8-dichloro-2-(4-fluorophenyl)imidazo[1,2-α]pyridin-3-yl]-2-pyrimidinamine] the figure was 950 nM; with `COc1ccc(-c2nc3c(NC4CCCC4)cccn3c2-c2ccnc(NC3CCCC3)n2)cc1` [Example 10, N-Cyclopentyl-3-[2-(cyclopentylamino)-4-pyrimidinyl]-2-(4-methoxyphenyl)imidazo[1,2-α]pyridin-8-amine], 1750 nM.
On to `c1ccc2cc(-c3nc4c(NC5CC5)cccn4c3-c3ccnc(NC4CC4)n3)ccc2c1` [Example 24, N-Cyclopropyl-3-[2-(cyclopropylamino)-4-pyrimidinyl]-2-(2-naphthyl)imidazo[1,2-α]pyridin-8-amine], for which the 50% inhibitory concentration (IC50) stood at 560 nM.
Turning to `N#Cc1ccc(-c2nc3c(N4CCOCC4)cccn3c2-c2ccnc(NC3CCCC3)n2)cc1` [Example 27, 4-[3-[2-(Cyclopentylamino)-4-pyrimidinyl]-8-(4-morpholinyl)-imidazo[1,2-α]pyridin-2-yl]benzonitrile], it took 200 nM to reach half-maximal inhibition (IC50).

Values taken from US7186714B2, “Imidazo[1,2-α]pyridine derivatives for the prophylaxis and treatment of herpes viral infections” (SmithKline Beecham Corporation, priority 2001, dated 2007).
